For test [1], the target named is Full-length PRMT5 enzyme co-expressed with MEP50 (Homo sapiens (Human), UniProt O14744). In words: PRMT5 Biochemical Assay. Conditions: 200 nM peptide substrate, 1 μM S-Adenosyl methionine, 4 hours at 37° C., Transcreener EPIGEN fluorescence polarisation. An excerpt:
Compounds of the invention may be tested for in vitro activity in the following assay: A histone H4 derived peptide is used as substrate (amino acid sequence: […]NH2). Full-length PRMT5 enzyme (NCBI Reference sequence NP_006100.2) was co-expressed with Hiss-MEP50 in insect cells and purified via Nickel immobilized metal affinity and gel filtration chromatography (“the enzyme”).
The […] assay reactions are run in Greiner brand black 384-well low volume plates. All reactions contained assay buffer (phosphate buffered saline, 0.01% (v/v) Tween-20, 0.01% (w/v) albumin from chicken egg white, 1 mM dithiothreitol, 200 nM peptide substrate, 1 μM S-Adenosyl methionine, and 15 ng/reaction enzyme, with the enzyme being omitted from negative control reactions. Compounds were added in a volume of 100 nL from dilution series prepared in DMSO, positive and negative control reactions receiving the same volume DMSO without compound. The plates were sealed with adhesive seals and incubated for 4 hours at 37° C. Reaction progress was measured using the Transcreener™ EPIGEN methyltransferase assay (BellBrook Labs, Madison, Wis.) as recommended by the manufacturer. To each reaction 2 μL detection mix were added, containing coupling enzymes, fluorescence polarisation tracer, and AMP antibody. […]

In test [2] the test system is symmetrical dimethylation of arginine (Histone H4R3) in cell line TE11. As to the kind of experiment: PRMT5 Biomarker Assay (Di-Methyl Histone H4R3 ELISA). Conditions: Homo sapiens, TE-11; TE11 cells, 72 h incubation, EpiQuik Global Di-Methyl Histone H4R3 ELISA, corrected for total protein. The class given is cell-based. Here is the method:
Compounds of the invention may be tested for potency to inhibit symmetrical […] of arginine in the following assay:
The cell line TE11 was seeded at a density of 12,000 cells per well in 96 well tissue culture plates in DME medium and 10% foetal bovine serum, and allowed to adhere overnight under standard culture conditions (37° C., 5% CO2). Compound dilutions prepared in DMSO were added to the medium, with negative control wells reserved for treatment with DMSO only and positive controls receiving a potent PRMT5 inhibitor. The concentration of the inhibitor had been previously determined to give maximum inhibition of the methylation. After incubation for 72 h, cells were washed twice in ice-cold PBS, lysed in lysis buffer (20 mM Tris pH 7.4, 135 mM NaCl, 1.5 mM MgCl2, 1 mM EGTA, 10% glycerol and 1% Triton-X100), centrifuged at 15,000×g and the supernatants collected for subsequent analysis. The methylation level was determined using the EpiQuik™ Global Di-Methyl Histone H4R3 Quantification ELISA Kit (Epigentek, Farmingdale, N.Y.) as per the manufacturer's recommendations; in parallel the total protein amount in the lysate was quantified using a Lowry protein assay. […]

For test [3], the system named is symmetrical dimethylation of arginine (Histone H4 Arginine 3) in cell line TE11. In words: Revised PRMT5 Biomarker Assay. Conditions: Homo sapiens, TE-11; TE11 cells, 72 hours incubation, anti-Di-Methyl Histone H4 Arginine 3 immunofluorescence, plate-reader based. The class given is cell-based. The protocol:
Compounds of the invention may be tested for potency to inhibit symmetrical dimethylation of arginine in the following assay:
The cell line TE11 was seeded at a density of 6,000 cells per well in 96 well optical quality tissue culture plates in DME medium and 10% foetal bovine serum, and allowed to adhere for 5 hours under standard culture conditions (37 degree Celsius, 5% CO2). Compound dilutions prepared in DMSO were added to the medium, with negative control wells reserved for treatment with DMSO only and positive controls receiving a potent PRMT5 inhibitor compound at 1 μM concentration. After incubation for 72 hours, the cells were fixed with 3.7% formaldehyde in PBS for 30 minutes at room temperature, washed with phosphate buffer saline and blocked with Odyssey blocking buffer (LI-COR, Lincoln, Nebr.). Rabbit anti-Di-Methyl Histone H4 Arginine 3 specific antibody (Epigentek) in Odyssey blocking buffer was added and incubated for 14 hours at 4 degree Celsius. After washing, anti-rabbit secondary antibody labelled with Alexa647 dye (LifeTechnologies) and Hoechst 33342 (1 μg/mL, SigmaAldrich) were added for 1 hour incubation. Plates were washed and read on a PerkinElmer Envision 2103 in fluorescence intensity scanning mode (24 scans across the well area). The methylation level information was corrected for the number of cells as expressed by the Hoechst 33342 stain, converted to percent inhibition relative to controls on the same plate and the data fitted against a four-parameter logistic model to determine the 50% inhibitory concentration (IC50 plate-reader based). Alternatively, the plates were imaged on a PerkinElmer Phenix high content imaging platform. Using a Columbus image analysis pipeline, individual nuclei were located by Hoechst 33342 stain and the methylation level was calculated from the Alexa647-related intensity in the same area. The resulting mean intensity per cell was directly converted to percent inhibition as outlined above (IC50, imager based)).

Consider 1 compound from patent US10647708B2, “Tetrahydroisoquinoline derived PRMT5-inhibitors” (CTXT PTY LTD, priority 2014, dated 2020).

The structures appear in SMILES notation.

Sequence of Full-length PRMT5 enzyme co-expressed with MEP50 (O14744 whole entry): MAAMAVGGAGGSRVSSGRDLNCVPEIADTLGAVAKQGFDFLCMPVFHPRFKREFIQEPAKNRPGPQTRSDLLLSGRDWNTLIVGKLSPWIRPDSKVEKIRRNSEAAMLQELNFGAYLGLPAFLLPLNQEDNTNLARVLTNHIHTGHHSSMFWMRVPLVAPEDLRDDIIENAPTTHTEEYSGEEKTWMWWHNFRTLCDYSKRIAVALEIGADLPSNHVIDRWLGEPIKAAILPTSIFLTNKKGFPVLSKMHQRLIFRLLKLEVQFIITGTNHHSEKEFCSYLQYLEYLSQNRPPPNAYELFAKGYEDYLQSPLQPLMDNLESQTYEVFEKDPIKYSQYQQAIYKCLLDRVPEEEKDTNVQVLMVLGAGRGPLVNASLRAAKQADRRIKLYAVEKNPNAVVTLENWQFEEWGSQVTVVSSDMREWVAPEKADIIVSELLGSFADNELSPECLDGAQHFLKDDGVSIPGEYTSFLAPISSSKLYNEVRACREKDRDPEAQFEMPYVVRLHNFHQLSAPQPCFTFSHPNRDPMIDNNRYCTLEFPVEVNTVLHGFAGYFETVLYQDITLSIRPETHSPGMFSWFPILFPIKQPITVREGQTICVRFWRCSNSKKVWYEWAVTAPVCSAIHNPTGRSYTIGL
Sequence of Full-length PRMT5 enzyme co-expressed with MEP50 (Q9BQA1 whole entry partner): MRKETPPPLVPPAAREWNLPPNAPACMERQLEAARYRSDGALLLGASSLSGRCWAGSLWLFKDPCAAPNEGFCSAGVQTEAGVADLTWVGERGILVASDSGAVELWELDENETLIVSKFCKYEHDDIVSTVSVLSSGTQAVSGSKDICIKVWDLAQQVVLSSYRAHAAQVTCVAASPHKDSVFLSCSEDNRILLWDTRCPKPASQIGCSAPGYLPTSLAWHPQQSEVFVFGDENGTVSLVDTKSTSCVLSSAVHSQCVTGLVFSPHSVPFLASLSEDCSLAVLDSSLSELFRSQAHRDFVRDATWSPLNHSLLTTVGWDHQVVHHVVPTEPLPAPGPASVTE

For the compound `O=C(NCCC(O)CN1CCc2ccccc2C1)c1ccc(Cl)cc1` (stereo not drawn) [Compound 1, 4-Chloro-N-(4-(3,4-dihydroisoquinolin-2(1H)-yl)-3-hydroxybutyl)benzamide], the values for the IC50 in test [1], in test [2] and in test [3] were 359 nM, 40.4 nM and 0.318 µM, respectively.
